The source of these data is PubChem BioAssay (NCI).

Assay in all cases: NCI-60 cell line screen, 48 h
Assay [1] concerns A549 NSCLC.
Assay [2] has as its system DU-145 prostate.
Assay [3] deals with EKVX NSCLC.
The test system of assay [4] is HCT-15 colon.
The subject of assay [5] is HL-60(TB) leukemia.
The subject of assay [6] is NCI-H522 lung.
The subject of assay [7] is OVCAR-3 ovarian.
Assay [8] deals with OVCAR-5 ovarian.
In assay [9] the test system is SK-MEL-28 melanoma.
Assay [10] concerns SW-620 colon.

Several values for one entry are separate records, joined by “and”; a condition that tells them apart may be missing. Equal entries are not always repeated.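 All cell lines were grown in 96-well plates and treated with compound for 48 hours. At the GI50, growth is halved. TGI: concentration producing complete growth inhibition.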 Some results are limits rather than exact numbers.

On to `O=C1/C(=C\c2ccc([N+](=O)[O-])cc2)CS(=O)(=O)C/C1=C/c1ccc([N+](=O)[O-])cc1`, for which the GI50 is 350 nM in assay [1]; 870 nM in assay [2]; 348 nM in assay [3]; 58 nM in [4]; 13.8 nM in [5]; 168 nM in [6]. Besides, the GI50 was 76.1 nM in [7], 126 nM in assay [8], 188 nM in assay [9] and 88.9 nM in assay [10]. The TGI in [1] is 10800 nM; in assay [2] it was 12400 nM; in assay [3], 4950 nM; in [4], 258 nM and 638 nM; in [5] it was 145 nM; in assay [6], 398 nM and 1290 nM. In addition, the TGI in assay [7] is 329 nM and 754 nM; in assay [9] it was 444 nM and 3590 nM; in [10] it was 481 nM and 2740 nM.

Turning to `CCN1CCN(CC(=O)Nc2nc3ccc(NCc4ccc(C)cc4)cc3s2)CC1`, the GI50 in assay [1] is 2290 nM; in [2], 7970 nM; in [3], 5670 nM; in [4], 1040 nM; in assay [5], 1050 nM; in [6], 4450 nM. The GI50 is 4930 nM in assay [7], 5630 nM in assay [8], 929 nM in assay [9] and 1600 nM in assay [10]. Also, the TGI came out at 8610 nM in assay [1]; 16400 nM in assay [2]; 13800 nM in assay [3]; 2470 nM in assay [4]; 2250 nM in assay [5]; 11500 nM in assay [6]. For the same molecule, the TGI amounted to 13700 nM in assay [7], 13400 nM in [8], 1920 nM in assay [9] and 6070 nM in [10].

For the molecule `COC(=O)c1c2c(c(C)[n+]([O-])c1C)C(=O)C=C(NCc1ccc(Br)cc1)C2=O`, the GI50 in assay [1] was 705 nM; in [2] it was 871 nM; in assay [3], 763 nM; in [4] it was 167 nM; in [5] it was 309 nM; in assay [6], 1230 nM. The GI50 in assay [7] was 252 nM; in [8], 1330 nM; in assay [9], 987 nM; in [10], 170 nM. In addition, the TGI in assay [1] was determined as 2740 nM; in assay [2], 2260 nM; in [3] it was 2370 nM; in assay [4], 1950 nM; in [5], 1500 nM; in assay [6], 4110 nM. In addition, the TGI in [7] amounted to 845 nM; in assay [8], 2830 nM; in assay [9] it was 2720 nM; in [10], 1710 nM.

Regarding `O=Cc1c[nH]c2ccc(-c3csc4ccccc34)cc12`, the GI50 is 4290 nM in [1]; 3180 nM in [2]; 2750 nM in assay [3]; 2980 nM in [4]; 2480 nM in assay [5]; 3230 nM in assay [6]. In addition, the GI50 was 2010 nM in assay [7], 88100 nM in [8], 5490 nM in [9] and 4310 nM in assay [10]. In addition, the TGI in [1] is over 100000 nM; in [2], 22200 nM; in [3] it was over 100000 nM; in [4], over 100000 nM; in assay [5], 8380 nM; in [6] it was over 100000 nM. Besides, the TGI in [7] was 5030 nM; in assay [8], over 100000 nM; in [9] it was over 100000 nM; in assay [10], over 100000 nM.

Consider `CCCCCCCCCCCCNC(=O)[C@H]1CSC(c2cc(Br)cs2)N1` (some centres undefined), for which the GI50 in assay [1] was 6990 nM; in assay [2], 1110 nM; in [3], 918 nM; in [4], 1030 nM; in [5], 1010 nM; in assay [6], 1370 nM. The GI50 was 1150 nM in [7], 1940 nM in assay [8], 759 nM in [9] and 1400 nM in [10]. In addition, the TGI in assay [1] is 14100 nM; in [2], 2500 nM; in assay [3], 1770 nM; in [4], 2380 nM; in [5] it was 2490 nM; in [6], 4310 nM. Further, the TGI is 2380 nM in assay [7], 6490 nM in assay [8], 1490 nM in [9] and 4190 nM in [10].

`Cc1ccc2nc3sc(=O)sc3nc2c1`: the TGI was 29600 nM in assay [1]; over 100000 nM in assay [2]; 27200 nM in assay [3]; 31300 nM in assay [4]; 44100 nM in assay [5]; 35700 nM in [6]. Moreover, the TGI in [7] is 27700 nM; in assay [8], 30800 nM; in assay [9], 48900 nM; in [10] it was 67900 nM.

Regarding `COc1cc(-c2ccc(Nc3ccccc3C(=O)O)c(OC)c2)ccc1Nc1ccccc1C(=O)O`, the TGI in [1] is over 100000 nM; in assay [2] it was 49900 nM; in assay [3], over 97400 nM; in [4], 51600 nM; in assay [5], 65800 nM; in assay [6], 66600 nM. Besides, the TGI in assay [7] is 39100 nM; in assay [8], over 87500 nM; in assay [9] it was over 100000 nM; in assay [10] it was over 100000 nM.

Regarding `NC(Cn1ccc(=O)c(O)c1)C(=O)O` (centres undefined), the TGI in [1], in assay [2], in assay [3], in [4], in assay [5] and in [6] was over 100000 nM each time. Further, the TGI in assay [7], in assay [8], in assay [9] and in assay [10] was over 100000 nM throughout.
